From US12514845B2, “Ionic-liquid-based formulations for the prevention or treatment of neurological diseases” (Universidade De Aveiro, priority 2022, dated 2026)
Where two headings read alike, the source gives them in different places.

Legend:
[1] = system: N27 dopaminergic neuronal cells exposed to MPP+; conditions: 24 h (FIG. 8)
Text: The data are presented as percentage of control as the mean±SEM of at least five repetitions of three independent experiments (n=3).

[2] = system: N27 dopaminergic neuronal cells exposed to 6OHDA; conditions: 20 μM pretreatment 2.5 h before 50 μM 6OHDA, 24 h (FIG. 7)
Procedure: (§2) The data are presented as percentage of control and presented as the mean±SEM of at least five repetitions of three independent experiments (n=3). Statistical analysis was performed using one-way ANOVA (non-parametric analysis), followed by the Kruskal-Wallis test, followed by Dunn's multiple comparison test. **p<0.01 compared to CTR or the group of cells exposed to cholinium chloride only +++p<0.001 compared to 6OHDA.

[3] = Afonso 2017, MSc thesis; cited from earlier work
dopaminergic neurons = conditions: PD models; Afonso 2017; cited from earlier work
in vitro = conditions: rat
Procedure: as §2

[4] = system: dopaminergic neurons in the substantia nigra (SN); assay: 6OHDA intrastriatal injection mouse model of PD, TH+ neuron count in SN; type: in vivo; conditions: 6-OHDA 10 μg/2 μL right striatum, day 7, vs control group (FIG. 10)
Procedure: In an embodiment, the biological neuroprotective effect of [Chol]2[N1(4)inh]+N1(4)inh+N1(4)inh when administrated via brain intraventricular infusion route was evaluated in an mouse model for PD induced by the intracerebral injection of 6OHDA, and the number of dopaminergic neurons in the substantia nigra counted.
In an embodiment, Male C57BL/6 mice were anesthetized and placed in the digital stereotaxic frame. Once the mouse skull was exposed, and using a digital coordinates system, injection and infusion sites were determined setting the zero at the bregma point. Hereupon, an injection of 6-OHDA (10 μg/2 μL of ascorbic acid 0.1% v/v) was performed in the right striatum (ST) of each animal using the coordinates: medial-lateral (ML): −2 mm; anterior-posterior (AP): 0.6 mm; dorsoventral (DV): −3.0 mm, using a Hamilton syringe at speed of 0.2 μL/min. The delivery of 0.2 mg/kg/day of [Chol]2[N1(4)inh]+N1(4)inh+N1(4)inh was performed as describe above. […]
The results are expressed as a percentage of Saline (Group (1) which are animals exposed only to saline solution) and represented as the mean±SEM of at least 3 independent experiments (n=3-4). […]

[5] = system: male wistar rats exposed to PQ; type: in vivo; conditions: PQ 2.5 mg/kg/day subcutaneous 4 weeks, week 8, vs control group (FIG. 22)
Procedure: (§1) In an embodiment, the biological neuroprotective effect of [Chol]2[N1(4)inh]+N1(4)inh+N1(4)inh when administrated via intranasal route was evaluated in rat model for PD induced by the exposure to a low chronic dose of PQ and through the analysis of the progression of behavior dysfunction. In this model, the animals are exposed to the toxin during 30 days (4 weeks) and then keeped alive during more 30 days to allow the pathology to progress (Total 8 weeks). The administration of [Chol]2[N1(4)inh]+N1(4)inh started after the first 30 exposure to PQ, via brain intraventricle or intranasal route and lasted the second 30 days. Animals were euthanized at week 8.
In an embodiment, male wistar rats 8-12 week-old subjected to subcutaneous chronic administration of PQ, that was carried out using osmotic minipumps (Alzet Durect, Cupertino, CA) at a dose of 2.5 mg/kg/day with a fluid delivery rate of 0.25 μL/hr for a period of four weeks (Alzet model 2004, large pumps). […] To evaluate the neuroprotective function of the IL-based formulation when administrated via intranasal route, behavior function was evaluated. Motor coordination, balance and grip strength were analyzed using a rat rotarod apparatus model 47700 (Ugo Basile, Comerio, Italy). […] The training was performed in 2 consecutive days, on each day 4 test trials were assessed, each lasting 5 min. […]

[6] = system: male wistar rats exposed to PQ; type: in vivo; conditions: PQ 2.5 mg/kg/day subcutaneous 4 weeks
Procedure: as §1, with “administrated via brain intraventricular infusion route was” for “administrated via intranasal route was”, “evaluated in a rat model” for “evaluated in rat model”, “dose of PQ, through the” for “dose of PQ and through the”
In an embodiment, male wistar rats 8-12 week-old were housed in a temperature/humidity-controlled environment under 12 h light/dark cycle with free access to water and food and subjected to subcutaneous chronic administration of PQ, that was carried out using osmotic minipumps (Alzet Durect, Cupertino, CA) at a dose of 2.5 mg/kg/day with a fluid delivery rate of 0.25 μL/hr for a period of four weeks (Alzet model 2004, large pumps). Control groups were implanted with minipump filled with sterile saline, the vehicle used to dissolve PQ. […] Once the rat skull was exposed and, using a digital coordinates system, the infusion sites were determined setting the zero at the bregma point. […] To evaluate the neuroprotective function of the IL-based formulation when infused in brain ventricle, behavior function was evaluated. Motor coordination, balance and grip strength were analyzed using a rat rotarod apparatus model 47700 (Ugo Basile, Comerio, Italy). […] The training was performed in 2 consecutive days, on each day 4 test trials were assessed, each lasting 5 min. […] The rotarod test was performed under an accelerating protocol (4-40 RPM) for 5 min, and the latency to fall was recorded using a specific software. […]

For `C[n+]1ccc(-c2ccccc2)cc1` [MPP+, 1-methyl-4-phenylpyridinium], the “loss of N27 cells viability” value ([1]; 10 μM MPP+) was 45%.

With `C[N+](C)(C)CCO.[Cl-]` [cholinium chloride] the “prevention of MPP+ dopaminergic neurotoxicity (cell viability)” value ([1]; 20 μM pretreatment 2.5 h before 10 μM MPP+) was “did not exert any protective effect” and the “prevention of 6OHDA-induced neurotoxicity (cell viability)” value [2] was “not prevented”.

In the case of `COc1cc(C(C)=O)ccc1[O-].C[N+](C)(C)CCO` [[Chol][Apo], cholinium apocynate], the “increase in water solubility versus Apo” value [3] is listed as 50 fold and the “6OHDA-induced toxicity in dopaminergic neurons” value (dopaminergic neurons) is listed as “significant reduction”.

For `NCCc1cc(O)c(O)cc1O` [6OHDA, 6-hydroxydopamine], the cytotoxicity at 24 h, 50 µM (in vitro) was 45% and the “reduction in the number of SN dopaminergic neurons” value [4] was 45%.

In the case of `C[n+]1ccc(-c2cc[n+](C)cc2)cc1` [PQ, paraquat], the “reduction in the latency to fall (rotarod)” value [5] was 47%, the “reduction in the distance travelled (open-field)” value ([6]; week 8, vs control (FIG. 20)) was 55% and the “reduction of speed (open-field)” value ([6]; week 8, vs control (FIG. 21)) was 50%. For the same compound, the “reduction in the latency to fall (rotarod)” value ([6]; week 8, vs control group (FIG. 19)) was 43%.
